Measured values published in publication PMC6720008, “A Novel Peptide Ameliorates LPS-Induced Intestinal Inflammation and Mucosal Barrier Damage via Its Antioxidant and Antiendotoxin Effects” (International Journal of Molecular Sciences, 2019).
Read-outs that look alike come from different tables or passages of the source. Ends that are not written are not given here.

Tests used:
[1] = Ex vivo stability in plasma; type: in vitro ADME, rat
Protocol: Figure 2 The mean plasma concentrations of LL-37, TP5, and LTP over times. The concentration of each target peptide in plasma in vitro at the selected times was quantified by HPLC.
Rat plasma was collected from healthy adult rats by centrifugation of whole blood samples. LL-37, TP5, and LTP were directly added to rat plasma (10 μg/mL), after which the plasma samples were incubated in a 37 °C water bath. At different times, the samples were collected into pre-chilled tubes which contained 1 mL of acidic acetone (hydrochloric acid/acetone/H2O, 1:40:5, by volume). Subsequently, the mixture was centrifuged at 2 × 10^4 rpm at 4 °C for 20 min. The precipitates were dried in vacuo, after which the dried precipitates were dissolved in 0.5 mL of 1 M acetic acid. The peptide analysis was carried out according to the protocol for the study of TP5 using HPLC [64]. The half-lives of the peptides were calculated by a logarithm-linear regression analysis of the peptide concentrations.

[2] = tested on: RAW264.7 macrophage cells; conditions: CCK-8, 24 h or 72 h
Protocol: RAW264.7 cells were pre-seeded in DMEM medium overnight. The cells were treated with various concentrations of peptides or without peptides at 37 °C and 5% CO2 for 24 h (A) or 72 h (B). They were incubated with CCK-8 solution for 4 h, and then, they were measured at 450 nm. Data are given as the mean value ± standard error from eight biological replicates. *: p ≤ 0.05, **: p ≤ 0.01, ***: p ≤ 0.001.
The murine macrophage cell line RAW264.7 was purchased from the Shanghai Cell Bank, the Institute of Cell Biology, China Academy of Sciences (Shanghai, China). RAW264.7 cells were cultured in Dulbecco’s modified Eagle’s medium (DMEM; Hyclone, Logan, UT, USA) supplemented with 10% (v/v) foetal bovine serum (Bioscience) and 1% (v/v) penicillin/streptomycin (Hyclone) in a 37 °C humidified incubator containing 5% CO2.
The viability of peptide-treated RAW264.7 cells was measured using the Cell Counting Kit-8 (CCK-8) Assay Kit (Dojindo, Japan) [63]. The cells were pre-seeded on a 96-well plate at a density of 3 × 10^4 cells/mL overnight. […] The absorbance at 450 nm was measured with a microplate reader. Cell viability was calculated as: Cell viability (%) = (OD450 (sample)/OD450(control)) × 100%(1) where OD450 (sample) is the absorbance at 450 nm of the cells with peptides treated, and OD450 (control) is the absorbance at 450 nm of the cells without peptides treated.

[3] = In vitro LPS neutralization, chromogenic end-point TAL assay; type: biochemical; conditions: LPS 1.0 U/mL, peptide 0 to 64 μg/mL, 37 °C 15 min, absorbance 540 nm, three biological replicates
Protocol: Figure 9 LPS neutralization activity of LTP in vitro and in vivo. (A) The LPS concentration in mouse plasma. (B) In-vitro LPS neutralization by LTP. LPS neutralization activity of LTP, LL-37, TP5, and PMB were determined using the chromogenic in vitro TAL assay. Data are presented as the mean value ± standard error from three biological replicates. *: p ≤ 0.05, ****: p ≤ 0.0001.
The neutralization of LPS by the peptides was detected using a quantitative Chromogenic End-point Tachypleus Amebocyte Lysate (CE TAL) assay with the QCL-1000 kit (Xiamen, China). Experiments were carried out according to the institutional guidelines. A constant concentration of LPS (1.0 U/mL final concentration) was incubated with different concentrations of polymyxin B (PMB) or the peptides (0 to 64 μg/mL final concentration) at 37 °C for 15 min in the wells of pyrogenic sterile microliters plates. Subsequently, the mixtures were incubated at 37 °C for 6 min in the presence of TAL assay reagent, after which the absorbances were measured at 540 nm.

[4] = rat plasma, peptide 10 μg/mL, 37 °C water bath, HPLC, logarithm-linear regression, mean ± standard error, three biological replicates, read-out: t1/2

`CC[C@H](C)[C@H](NC(=O)[C@H](CCCCN)NC(=O)[C@H](CCC(=O)O)NC(=O)[C@H](CCCCN)NC(=O)[C@H](CO)NC(=O)[C@H](CCCCN)NC(=O)[C@H](CCCNC(=N)N)NC(=O)[C@H](Cc1ccccc1)NC(=O)[C@H](Cc1ccccc1)NC(=O)[C@H](CC(=O)O)NC(=O)CNC(=O)[C@H](CC(C)C)NC(=O)[C@@H](N)CC(C)C)C(=O)NCC(=O)N[C@@H](CCCCN)C(=O)N[C@@H](CCC(=O)O)C(=O)N[C@@H](Cc1ccccc1)C(=O)N[C@@H](CCCCN)C(=O)N[C@@H](CCCNC(=N)N)C(=O)N[C@H](C(=O)N[C@H](C(=O)N[C@@H](CCC(N)=O)C(=O)N[C@@H](CCCNC(=N)N)C(=O)N[C@H](C(=O)N[C@@H](CCCCN)C(=O)N[C@@H](CC(=O)O)C(=O)N[C@@H](Cc1ccccc1)C(=O)N[C@@H](CC(C)C)C(=O)N[C@@H](CCCNC(=N)N)C(=O)N[C@@H](CC(N)=O)C(=O)N[C@@H](CC(C)C)C(=O)N[C@H](C(=O)N1CCC[C@H]1C(=O)N[C@@H](CCCNC(=N)N)C(=O)N[C@H](C(=O)N[C@@H](CCC(=O)O)C(=O)N[C@@H](CO)C(=O)O)[C@@H](C)O)C(C)C)[C@@H](C)CC)C(C)C)[C@@H](C)CC` [LL-37] gave a half-life at 10 μg/mL ([1]; rat, plasma) of 4.04 ± 0.752 h.

In the case of IGKEFKRIVQRIKDFLRNLVPRTERKDVY [LTP], the “cytotoxicity on RAW264.7 cells compared with the parental peptides” value ([2]; eight biological replicates) is reported as “lower cytotoxicity than LL-37 and TP5”, the “cytotoxicity towards RAW264.7 cells” value ([2]; highest concentration of 60 μg/mL, 37 °C, 5% CO2, absorbance 450 nm, mean of eight biological replicates) is reported as “no significant cytotoxicity” and the half-life in plasma t1/2 is reported as 4 h. For the same compound, the half-life at 10 μg/mL [1, 4] was 4 ± 0.919 h.

For RKDVY [TP5, Thymopentin], the half-life at 10 μg/mL [1, 4] was 0.022 ± 0.004 h and the metabolised at 5 min, 10 μg/mL ([1]; rat plasma, peptide 10 μg/mL, 37 °C, HPLC, three biological replicates, read-out: decrease of plasma concentration after incubation for 5 min) was 95%.

For polymyxin B [PMB], the “50% binding rate value (LPS neutralization)” value [3] was 1 µg/mL.
